Laboratory results: patent US8445719B2, “Method of stabilizing heme protein and storage solution therefor” (priority 2007, dated 2013)

Columns and labels:
[1] = target: fecal human hemoglobin (Homo sapiens, UniProt P68871+P69905); conditions: single use of EDTA
[2] = target: Hemoglobin (Homo sapiens, UniProt P68871+P69905); test: Hemoglobin stabilization effect in storage solution, hemoglobin only (residual ratio by immunological measurement); conditions: for Residual ratio, Hemoglobin: stored at 37° C. for 20 hours, pH 7.0 HEPES storage solution; for Stabilizing effect (in words): 0.001-0.050 mol/L
Hemoglobin, sequence (P69905 2-142 limits assumed): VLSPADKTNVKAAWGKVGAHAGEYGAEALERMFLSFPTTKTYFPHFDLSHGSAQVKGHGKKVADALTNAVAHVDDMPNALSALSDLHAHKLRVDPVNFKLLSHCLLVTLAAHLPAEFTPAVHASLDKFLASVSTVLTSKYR
Hemoglobin, sequence (P68871 2-147 limits assumed): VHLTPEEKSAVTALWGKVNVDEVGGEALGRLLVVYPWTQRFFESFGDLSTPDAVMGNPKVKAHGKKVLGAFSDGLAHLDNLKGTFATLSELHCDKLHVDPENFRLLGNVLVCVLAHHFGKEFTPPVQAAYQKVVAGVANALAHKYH

[3] = target: Hemoglobin + feces sample (Homo sapiens, UniProt P68871+P69905); test: Hemoglobin stabilization effect in storage solution, hemoglobin coexisting with feces sample (residual ratio by immunological measurement); conditions: for Residual ratio, Hemoglobin + feces sample: stored at 37° C. for 20 hours, pH 7.0 HEPES storage solution; for Stabilizing effect (in words): 0.001-0.050 mol/L
Hemoglobin + feces sample, sequence (P69905 2-142 limits assumed): as the sequence (P69905 2-142 limits assumed) above
Hemoglobin + feces sample, sequence (P68871 2-147 limits assumed): as the sequence (P68871 2-147 limits assumed) above

[4] = test solution of hemoglobin only, 37° C., 20 hours
[5] = test solution in which hemoglobin and feces coexist, 37° C., 20 hours

fecal human hemoglobin, sequence (P69905 2-142 limits assumed): as the sequence (P69905 2-142 limits assumed) above
fecal human hemoglobin, sequence (P68871 2-147 limits assumed): as the sequence (P68871 2-147 limits assumed) above

Residual ratio, Hemoglobin ([2]; 0.001 mol/L agent added) [%] | Residual ratio, Hemoglobin ([2]; 0.010 mol/L agent added) [%] | Residual ratio, Hemoglobin ([2]; 0.050 mol/L agent added) [%] | Stabilizing effect (in words) [2, 4] | Residual ratio, Hemoglobin + feces sample ([3]; 0.001 mol/L agent added) [%] | Residual ratio, Hemoglobin + feces sample ([3]; 0.010 mol/L agent added) [%] | Residual ratio, Hemoglobin + feces sample ([3]; 0.050 mol/L agent added) [%] | Compound | Stabilizing effect (in words) [3, 5] | other results
79.5 | 79.8 | 82.4 | slight stabilizing effect was observed | 34.3 | 35.8 | 37.1 | O=C(O)CN(CCN(CC(=O)O)CC(=O)O)CC(=O)O [EDTA, ethylenediamine-N,N,N′,N′-4 acetic acid] | slightly higher effect to stabilize hemoglobin was observed | Stabilizing action on fecal human hemoglobin (in words) [1]: sufficient stabilizing action on fecal human hemoglobin cannot be expected
80.3 | 79.3 | 81.6 | slight stabilizing effect was observed | 26.1 | 26.4 | 27.3 | O=C(O)CN(CCO)CC(=O)O [HIDA, N-(2-hydroxyethyl) iminodiacetic acid] | any certain stabilizing effect was not observed | 
82.1 | 80.9 | 81.0 | slight stabilizing effect was observed | 28.0 | 27.3 | 26.3 | O=C(O)CNCC(=O)O [IDA, iminodiacetic acid] | any certain stabilizing effect was not observed | 

Compound | Residual ratio, Hemoglobin ([2]; 0.001 mol/L agent added) [%] | Residual ratio, Hemoglobin ([2]; 0.010 mol/L agent added) [%] | Residual ratio, Hemoglobin ([2]; 0.050 mol/L agent added) [%] | Stabilizing effect (in words) [2, 4] | Residual ratio, Hemoglobin + feces sample ([3]; 0.001 mol/L agent added) [%] | Residual ratio, Hemoglobin + feces sample ([3]; 0.010 mol/L agent added) [%] | Residual ratio, Hemoglobin + feces sample ([3]; 0.050 mol/L agent added) [%] | Stabilizing effect (in words) [3, 5] | other results
O=C([O-])CC(NC(C(=O)[O-])C(O)C(=O)[O-])C(=O)[O-].[Na+].[Na+].[Na+].[Na+] (centres unmarked) [HIDS, tetrasodium 3-hydroxy-2,2′-iminodisuccinate] | 82.8 | 84.2 | 84.1 |  | 28.8 | 39.2 | 50.8 |  | Residual ratio, Hemoglobin ([2]; 0.005 mol/L agent added): 83.9%; Residual ratio, Hemoglobin ([2]; 0.075 mol/L agent added): 85.2%; Residual ratio, Hemoglobin ([2]; 0.100 mol/L agent added): 87.8%; Residual ratio, Hemoglobin ([2]; 0.150 mol/L agent added): 88.2%; Residual ratio, Hemoglobin ([2]; 0.200 mol/L agent added): 86.2%; Concentration at which a stabilizing effect was observed [2, 4]: ≥ 0.001 mol/L; Residual ratio, Hemoglobin + feces sample ([3]; 0.005 mol/L agent added): 32.3%; Residual ratio, Hemoglobin + feces sample ([3]; 0.075 mol/L agent added): 53.9%; Residual ratio, Hemoglobin + feces sample ([3]; 0.100 mol/L agent added): 55.9%; Residual ratio, Hemoglobin + feces sample ([3]; 0.150 mol/L agent added): 57.8%; Residual ratio, Hemoglobin + feces sample ([3]; 0.200 mol/L agent added): 46.3%; Concentration at which the effect to stabilize hemoglobin was remarkable ([3]; 37° C., 20 hours): ≥ 0.050 mol/L; Concentration at which the stabilizing effect is observed [3, 5]: ≥ 0.005 mol/L
